Results on three compounds are retold here after patent US12150938B2, “Biomarker of polycystic kidney disease and uses thereof” (Genzyme Corporation, priority 2015, dated 2024).

In assay [1] the test system is AMBP protein. In words: Immunoblot of AMBP protein levels in urine and kidney samples of treated jck mice. In kind it is in vivo, mouse. Here is the method: Kidney samples were homogenized in RIPA buffer (Boston BioProducts) including 1 mM DTT, 5 mM EDTA, 2 mM NaF, 1 mM Na3VO4 (all supplied by Sigma-Aldrich), Pefabloc SC and Complete Proteinase Inhibitor Cocktail (both from Roche Applied Science). Protein concentrations were determined by BCA protein assay (Pierce). Urine samples were briefly centrifuged at 3000 RPM for 10 minutes at 4° C. (Beckman Coulter Allegra 6A) to remove cellular debris. An equal volume of urine was diluted in 5× Laemmli Buffer (15% SDS, 0.575 M sucrose, 0.325 M Tris, pH 6.8, 5% beta-mercaptoethanol and 0.002% bromophenol blue). Equal amounts of protein and urine were loaded onto 4-14% NuPage Bis-Tris gels following the manufacturer's protocols (Invitrogen). Membranes were blocked with 5% nonfat milk in Tris-buffered saline (TBS) including 0.1% Tween-20 and incubated with primary antibodies overnight at 4° C. Primary antibodies were detected with horseradish peroxidase-labeled secondary antibodies (Promega). Immunoreactive proteins were detected by enhanced chemiluminescence (GE Healthcare). Primary antibodies to the following proteins were used: α-1-microglobulin and β-actin (Abcam), and GAPDH (US Biological).
Roscovitine was administered ad libitum to jck mice from 26 to 64 days of age by mixing in powdered 5053 diet at 0.2%. The GCSi (Genz-123346) was administered ad libitum to jck mice from day 26 to day 64 after birth by mixing in powdered 5053 diet at 0.225% (Natoli et al., Nature Med. 16:788-792, 2010). Chronic and pulse treatment with S-CR8 was performed by daily intraperitoneal injection with 24 mg/kg starting from day 26 after birth. Urine was collected for 24 hours consecutively (at day 26, 33, 41, 48, and 64 after birth) over a 5-week period from animals with a range of disease severity measured by kidney to body weight ratio (K/BW) and cystic percentage (C %).
A second set of experiments was performed in jck mice to determine a second CDK inhibitor, S-CR8, would decrease both AMBP levels and kidney volume. In these experiments, the jck animals were administered one of the following treatment schedules starting at day 26 after birth: (A) daily intraperitoneal injection with 24 mg/kg S-CR8 for five weeks; (B) daily intraperitoneal injection with 24 mg/kg S-CR8 for three weeks, and two weeks with no treatment; and (D) daily intraperitoneal injection with 24 mg/kg S-CR8 for one week and four weeks with no treatment (FIG. 18). As a control, jck animals were administered a vehicle between day 26 to day 64 after birth.
(Immunoblotting shows a protein as a band on a membrane.)

Assay [2] relates to jck mice. The assay can be described thus: Treatment of jck mice (PKD model): kidney volume / cyst volume. The assay is classed as in vivo, mouse. Here is the method:
C57BL/6J jck/+ mice were maintained for mating. Cystic jck/jck mice were genotyped as previously described (Smith et al., J. Am. Soc. Nephrol. 17:2821-2831, 2006). […] conditional knockout mice were generated as described previously (Natoli et al., Nature Med. 16:788-792, 2010). The […] gene was deleted by inducing the Cre recombinase activity with tamoxifen delivered in sunflower oil (Sigma-Aldrich, St. Louis, MO), on postnatal day 1 with 100 mg/kg.
A jck mouse model of PKD (Smith et al., J. Am. Soc. Nephrol. 17:2821-2831, 2006) was used to assess the expression of AMBP. Jck mice are characterized by development of moderately progressive renal cystic disease. Kidneys from the jck mouse model are enlarged by day 26 after birth and have multiple cysts. […] Renal function in jck mice, as measured by serum creatinine and blood urea nitrogen, progressively elevates over time. […] Cysts originating from the proximal tubules are not detected in jck mice (Smith et al., J. Am. Soc. Nephrol. 17:2821-2831, 2006).
Roscovitine was administered ad libitum to jck mice from 26 to 64 days of age by mixing in powdered 5053 diet at 0.2%. […] Urine was collected for 24 hours consecutively (at day 26, 33, 41, 48, and 64 after birth) over a 5-week period from animals with a range of disease severity measured by kidney to body weight ratio (K/BW) and cystic percentage (C %). […]

The mark [3] stands for this setting: 0.225% in diet day 26 to day 64 after birth, day 64, vs vehicle (FIG. 22).
Setting [4] is: oral 0.2% in feed day 26 to day 64 after birth, day 64, vs vehicle (FIG. 17).

Turning to `CCCCCCCCC(=O)N[C@H](CN1CCCC1)[C@H](O)c1ccc2c(c1)OCCO2` [Genz-123346], in assay [1] (setting [3]), the “AMBP levels in kidney tissue samples” value was “decrease” and the “AMBP levels in urine samples” value is on record as “decrease”.

With `CC[C@@H](CO)Nc1nc(NCc2ccc(-c3ccccn3)cc2)c2ncn(C(C)C)c2n1` [S-CR8], in assay [2] (daily intraperitoneal 24 mg/kg from day 26, all tested schedules (A 5 weeks, B 3 weeks, D 1 week), vs vehicle), the “cyst volume (cystic volume as percentage of body weight, FIG. 19)” value is “decrease”. The “urine AMBP protein levels” value in assay [1] (daily intraperitoneal 24 mg/kg from day 26, all tested schedules (A, B, D), urine at day 64, vs vehicle (FIGS. 20 and 21)) was “decrease”.

Consider `CC[C@H](CO)Nc1nc(NCc2ccccc2)c2ncn(C(C)C)c2n1` [roscovitine], for which the “kidney volume (kidney to body weight, FIG. 16)” value in assay [2] (oral 0.2% in feed day 26 to day 64 after birth, measured at day 64, vs vehicle) was “decrease”. Besides, in assay [1] (setting [4]), the “AMBP protein levels in kidney samples” value is on record as “decrease” and the “AMBP protein levels in urine” value was “decrease”.
